Series [1] addresses Human immunodeficiency virus type 1 protease (Human immunodeficiency virus 1, UniProt Q72874). The series can be described thus: Inhibition of HIV-1 protease expressed in Escherichia coli using Arg-Glu(EDANS)-Ser-Gln-Asn-Tyr-Pro-Ile-Val-Gln-Lys(DABCYL)-Arg peptide as substrate preincubated for 20 to 30 mins followed by substrate addition and measured for 10 mins by FRET assay.

The nature of series [2]: Cytotoxicity against human HEK293T cells assessed as reduction in cell viability incubated for 24 hrs by CCK-8 assay. The class given is toxicity, cell-based, HEK-293T.
Series [3] relates to Human immunodeficiency virus 1. Kind of series: Antiviral activity against drug-resistant VSV-G pseudotyped HIV-1 NL4-3 harboring protease V32I/L33F/I54M/I84V mutant infected in human HEK293T cells assessed as inhibition of viral replication by measuring luciferase activity incubated for 48 hrs further infected with human SupT1 cells for 48 hrs by luciferase based analysis. Type of series: functional, organism-based. The conditions noted are these: Human immunodeficiency virus 1, NL4-3, HEK-293T.

Series [4] relates to Human immunodeficiency virus 1. Kind of series: Antiviral activity against wild type VSV-G pseudotyped HIV-1 NL4-3 infected in human HEK293T cells assessed as inhibition of viral replication by measuring luciferase activity incubated for 48 hrs further infected with human SupT1 cells for 48 hrs by luciferase based analysis. Type of series: functional, organism-based. Conditions: Human immunodeficiency virus 1, NL4-3, HEK-293T.

pEC50, pIC50: −log10 of the molar value. Bounds are passed on as bounds.

As usually defined, the pIC50 is −log10 of the IC50, conventionally taken in molar units. Low values mean a high IC50, high ones a low IC50. The CC50 is the concentration at which the toxic effect on the cells reaches its halfway point. Broadly, the pEC50 is the negative decadic logarithm of the EC50, by convention in mol/L.

In turn, `CC(C)CN(C[C@@H](O)[C@H](Cc1ccccc1)NC(=O)C[C@H]1CCNC1)S(=O)(=O)c1ccc(O)cc1` gave a pIC50 in series [1] of 5.84.
Same read-out and setting: next, `COc1ccc(S(=O)(=O)N(CC(C)C)C[C@@H](O)[C@H](Cc2ccccc2)NC(=O)C[C@@H]2CCNC2)cc1`: 4.69; `CC(C)CN(C[C@@H](O)[C@H](Cc1ccccc1)NC(=O)[C@H]1CCNC1)S(=O)(=O)c1ccc(NO)cc1`: 4.96.
The same measure, in the same setting: next, `CC(C)CN(C[C@@H](O)[C@H](Cc1ccccc1)NC(=O)[C@@H]1CCCN1)S(=O)(=O)c1ccc(O)cc1`: 6.01.
In series [1], `CC(C)CN(C[C@@H](O)[C@H](Cc1ccccc1)NC(=O)O[C@H]1CCNC1)S(=O)(=O)c1ccc(NO)cc1` gave a negative-log IC50 (pIC50) of 5.29.
As to `CC(C)CN(C[C@@H](O)[C@H](Cc1ccccc1)NC(=O)[C@H]1CCNC1)S(=O)(=O)c1ccc(O)cc1`, the 50% cytotoxic concentration (CC50) at 24 h in series [2] was more than 200 µM. In addition, the pEC50 in series [3] is 4.88; in series [4], 5.80. In series [1], this compound showed a negative logarithm of the IC50 (pIC50) of 6.29.
Consider `COc1ccc(S(=O)(=O)N(CC(C)C)C[C@@H](O)[C@H](Cc2ccccc2)NC(=O)O[C@H]2CCNC2)cn1`, for which the pIC50 in series [1] is 5.39.
In the case of `COc1ccc(S(=O)(=O)N(CC(C)C)C[C@@H](O)[C@H](Cc2ccccc2)NC(=O)N[C@@H]2CCNC2)cc1`, in series [1], the pIC50 was 4.68.
For the compound `CC(C)CN(C[C@@H](O)[C@H](Cc1ccccc1)NC(=O)O[C@@H]1CCNC1)S(=O)(=O)c1ccc(O)cc1`, the CC50 at 24 h in series [2] was more than 200 µM. The figures for the negative logarithm of the EC50 (pEC50) in series [3] and in series [4] were 5.03 and 6.12, respectively. For the same compound, in series [1], the pIC50 was 6.09.
Consider `COc1ccc(S(=O)(=O)N(CC(C)C)C[C@@H](O)[C@H](Cc2ccccc2)NC(=O)N[C@H]2CCNC2)cc1`, for which, in series [1], the pIC50 is 5.40.
Regarding `COc1ccc(S(=O)(=O)N(CC(C)C)C[C@@H](O)[C@H](Cc2ccccc2)NC(=O)[C@@H]2CCNC2)cc1`, the CC50 at 24 h in series [2] is more than 200 µM. Also, the values for the pEC50 in series [3] and in series [4] were 5.60 and 5.87, respectively. The compound further showed a pIC50 in series [1] of 6.39.
`CC(C)CN(C[C@@H](O)[C@H](Cc1ccccc1)NC(=O)C[C@@H]1CCNC1)S(=O)(=O)c1ccc(O)cc1` had a pIC50 in series [1] of 5.30.
On the same count and under the same terms, to `COc1ccc(S(=O)(=O)N(CC(C)C)C[C@@H](O)[C@H](Cc2ccccc2)NC(=O)[C@H]2CCNC2)cn1` belongs 5.32.
For the compound `CC(C)CN(C[C@@H](O)[C@H](Cc1ccccc1)NC(=O)O[C@H]1CCNC1)S(=O)(=O)c1ccc(O)cc1`, the CC50 at 24 h in series [2] was more than 200 µM. In addition, the values for the negative logarithm of the EC50 (pEC50) in series [3] and in series [4] were 5.09 and 6.39, respectively. In addition, the pIC50 in series [1] was 6.14.
On to `COc1ccc(S(=O)(=O)N(CC(C)C)C[C@@H](O)[C@H](Cc2ccccc2)NC(=O)O[C@@H]2CCNC2)cc1`, for which the negative logarithm of the IC50 (pIC50) in series [1] is 5.59.
Same read-out and setting: to `CC(C)CN(C[C@@H](O)[C@H](Cc1ccccc1)NC(=O)[C@@H]1CCNC1)S(=O)(=O)c1ccc(NO)cc1` belongs 5.92.
As to `CC(C)CN(C[C@@H](O)[C@H](Cc1ccccc1)NC(=O)[C@@H]1CCNC1)S(=O)(=O)c1ccc(O)cc1`, the 50% cytotoxic concentration (CC50) at 24 h in series [2] was more than 200 µM. Moreover, the pEC50 was 5.72 in series [3] and 6.54 in series [4]. In series [1], this compound showed a pIC50 of 6.49.
`CC(C)CN(C[C@@H](O)[C@H](Cc1ccccc1)NC(=O)O[C@@H]1CCNC1)S(=O)(=O)c1ccc(N)cc1` showed a pIC50 in series [1] of 4.60.
Regarding `CC(C)CN(C[C@@H](O)[C@H](Cc1ccccc1)NC(=O)O[C@H]1CCOC1)S(=O)(=O)c1ccc(N)cc1`, the CC50 at 24 h in series [2] was more than 200 µM. The pEC50 in series [3] was 5.41; in series [4], 6.59.
For `CC(C)CN(C[C@@H](O)[C@H](Cc1ccccc1)NC(=O)[C@@H]1CCNC1)S(=O)(=O)c1ccc(N)cc1`, the negative logarithm of the IC50 (pIC50) in series [1] is 5.21.
In series [1], `CC(C)CN(C[C@@H](O)[C@H](Cc1ccccc1)NC(=O)[C@H]1CCNC1)S(=O)(=O)c1ccc(N)cc1` showed a pIC50 of 4.90.
The same measure, in the same setting: next, `CC(C)CN(C[C@@H](O)[C@H](Cc1ccccc1)NC(=O)[C@H]1CCCN1)S(=O)(=O)c1ccc(O)cc1`: 4.01; `COc1ccc(S(=O)(=O)N(CC(C)C)C[C@@H](O)[C@H](Cc2ccccc2)NC(=O)C[C@H]2CCNC2)cc1`: 5.56.
Same read-out and setting: next, `COc1ccc(S(=O)(=O)N(CC(C)C)C[C@@H](O)[C@H](Cc2ccccc2)NC(=O)[C@@H]2CCCN2)cc1`: 5.66; `CC(C)CN(C[C@@H](O)[C@H](Cc1ccccc1)NC(=O)O[C@@H]1CCNC1)S(=O)(=O)c1ccc(NO)cc1`: 4.56; `COc1ccc(S(=O)(=O)N(CC(C)C)C[C@@H](O)[C@H](Cc2ccccc2)NC(=O)[C@H]2CCCN2)cc1`: 4.40.
On the same count and under the same terms, to `CC(C)CN(C[C@@H](O)[C@H](Cc1ccccc1)NC(=O)N[C@@H]1CCNC1)S(=O)(=O)c1ccc(O)cc1` belongs 5.22; to `COc1ccc(S(=O)(=O)N(CC(C)C)C[C@@H](O)[C@H](Cc2ccccc2)NC(=O)[C@@H]2CCNC2)cn1`, 6.08.
In turn, `CC(C)CN(C[C@@H](O)[C@H](Cc1ccccc1)NC(=O)N[C@H]1CCNC1)S(=O)(=O)c1ccc(O)cc1` gave a pIC50 in series [1] of 5.71. This pIC50 is 0.37 log units lower than that of the compound before.
The same measure, in the same setting: to `COc1ccc(S(=O)(=O)N(CC(C)C)C[C@@H](O)[C@H](Cc2ccccc2)NC(=O)O[C@H]2CCNC2)cc1` belongs 5.96; to `COc1ccc(S(=O)(=O)N(CC(C)C)C[C@@H](O)[C@H](Cc2ccccc2)NC(=O)O[C@@H]2CCNC2)cn1`, 4.64.
On the same count and under the same terms, next, `CC(C)CN(C[C@@H](O)[C@H](Cc1ccccc1)NC(=O)O[C@H]1CCNC1)S(=O)(=O)c1ccc(N)cc1`: 5.30.
Still for that read-out and setting: next, `COc1ccc(S(=O)(=O)N(CC(C)C)C[C@@H](O)[C@H](Cc2ccccc2)NC(=O)[C@H]2CCNC2)cc1`: 6.22.

The values above are taken from ChEMBL document CHEMBL5321230, “Design, synthesis, and biological evaluation of novel HIV-1 protease inhibitors containing pyrrolidine-derived P2 ligands to combat drug-resistant variant” (Eur J Med Chem, 2023).
